The record followed here is patent US10028973B2, “Using DNA methyltransferase inhibitors to treat calcific aorta valve disease” (Mayo Foundation for Medical Education and Research, priority 2014, dated 2018).

SMILES strings stand for the structures.

Experiment [1] relates to pig aortic valve interstitial cells. The experiment in a line: Calcium deposition in aortic valve interstitial cells in vitro. Format: cell-based. The conditions noted are these: FIG. 7. An excerpt: FIG. 7 is a graph plotting the effects of DNMT inhibition with DAC calcium deposition in pig aortic valve interstitial cells in vitro.
Experiment [2] deals with hypercholesterolemic mice. The experiment can be described thus: Chronic low-dose Decitabine treatment: progression of aortic valve calcification and stenosis (cusp separation distance, echocardiography). The format is in vivo, mouse. The conditions noted are these: FIG. 8. As to the method: FIG. 8 is a graph plotting cusp separation distance in control mice and in mice treated with DAC (0.1 mg/kg i.p., 2 days/week for 3 months). […] Echocardiographic evaluation of aortic valve function: Echocardiographic evaluation of aortic valve function is conducted as described elsewhere (Miller et al. 2009, supra; Hinton et al., Am J Physiol Heart Circ Physiol 294:[…]-2488, 2008; Barrick et al., Am J Physiol Heart Circ Physiol 297:[…]-75, 2009; and Miller et al., Circ Res 108:1392-1412, 2011). In brief, a Vevo 2200 small animal ultrasound unit is used to evaluate 1) cusp separation distance from M-mode images, 2) peak transvalvular blood velocity, and 3) color Doppler screening for evidence of aortic valve regurgitation. […] Short- and long-axis views of the left ventricle also are acquired to evaluate ventricular function (Berry et al., J Cardiovasc Magn Reson 11:27, 2009).

Experiment [3] has as its system mouse aortic valves. The experiment in a line: Acute Decitabine treatment of mice with established CAVD: gene expression in aortic valve tissue by quantitative real-time RT-PCR. The format is in vivo. The conditions noted are these: ldlr−/−/apoB100/100 (LA) mice on Western diet 6 months, 0.5 or 1 mg/kg/day i.p. for 5 days. As to the method: FIG. 5 is a pair of graphs plotting the effects of DNMT inhibition with decitabine (DAC) on expression of the pro-osteogenic signaling genes, Runx2 and osteopontin (SPP1), in mouse aortic valves in vivo. DAC was administered using daily intraperitoneal injections at the doses indicated (mg/kg/day) for 5 days, and gene expression was measured using quantitative real-time RT-PCR and mRNA isolated from mouse aortic valve tissue.
FIG. 6 is a graph plotting the effects of DNMT inhibition with DAC on expression of the anti-osteogenic gene, FABP4 (a PPARγ target). DAC was administered using daily intraperitoneal injections at the doses indicated (mg/kg/day) for 5 days, and gene expression was measured using quantitative real-time RT-PCR and mRNA isolated from mouse aortic valve tissue.
To determine whether acute DNA methyltransferase inhibition promotes anti-calcific gene expression patterns in mice with established calcific aortic valve disease, ldlr^−/−/apoB^100/100 (LA) mice were placed on a Western diet for 6 months (which produces mild to moderate valvular dysfunction), and treated with vehicle or Decitabine (5-aza-2′-deoxycytidine; “DAC”) for 5 days (0.5 or 1 mg/kg/day, i.p.). Changes in cardiac and aortic valve function at 3 and 6 months are evaluated. […] The second group is used for semi-quantitative histological/immunohistochemical evaluation of aortic valve (n=10). The third group is used for genome-wide evaluation of gene expression using microarrays (n=20), and the fourth group is used for high-resolution μCT scanning for quantitation of calcium burden in aortic valve and root (n=15).
Quantitative Real-Time RT-PCR: Aortic valve cusps are dissected, and tissue is processed and stored using commercially available lysis buffer with β-mercaptoethanol (Miller et al., Am J Physiol Heart Circ Physiol 298:H1600-1607, 2010). Quantitative real-time RT-PCR studies confirming array-detected changes in gene expression are performed on a StepOne Plus instrument (Applied Biosystems).

For the compound `Nc1ncn([C@H]2C[C@H](O)[C@@H](CO)O2)c(=O)n1` [Decitabine, 5-Aza-2′-deoxycytidine], in experiment [1], the “calcification in aortic valve interstitial cells” value is listed as “reduced calcification”. In addition, in experiment [2] (0.1 mg/kg i.p., 2 days/week for 3 months, larger cusp separation distance = improved valve function), the “progression of aortic valve stenosis (cusp separation distance)” value is “slowed progression of aortic valve stenosis”. In experiment [2] (low-dose, hypercholesterolemic mice in vivo), the “progression of aortic valve calcification and stenosis” value is on record as “successfully slowed progression”. Besides, the Sp7 expression result in experiment [3] was “dose-dependent reductions”. In experiment [3] (FIG. 5), the Runx2 expression result was “dose-dependent reductions”. The “PPARγ target gene expression (e.g., FABP4)” value in experiment [3] (FIG. 6) was “increased PPARγ target gene expression”.
